Measured values reported in patent publication US12522612B2, “PDE4 inhibitors, pharmaceutical compositions, and therapeutic applications” (BioTheryX, Inc., priority 2019, dated 2026).

Tested on: TNF-α
Experiment: Cell-based TNF-α inhibition assay in LPS-induced PBMCs (Meso Scale)
Conditions: PBMC, PBMCs pretreated 1 h, LPS 100 ng/mL 18-24 h, relative to stimulated DMSO control; for inhibition at 1 µM: compound concentration 1 μM; for inhibition at 0.1 µM: compound concentration 0.1 μM
Protocol: Frozen primary blood mononuclear cells (PBMCs) were quick thawed, washed once with RPMI 1640 media supplemented with 10% fetal bovine serum, 1% penicillin, and 1% streptomycin, and plated in a 96 well plate at 200,000 cells per well. The cells were pretreated with DMSO only as a control or a compound for 1 h, and then induced with LPS (lipopolysaccharide) (100 ng/mL) for 18-24 h. The supernatant was analyzed for TNF-α using the Meso Scale assay. Compound activity was determined as a percentage of the stimulated DMSO control. The results are summarized in Table 1, where A represents a percent inhibition value ≥60%; B represents a percent inhibition value <60% and ≥40%; C represents a percent inhibition value <40% and >20%; and D represents a single percent inhibition value <20%.

SMILES | inhibition at 1 µM [%] | inhibition at 0.1 µM [%]
O=C1CC(c2ccc(OCCCCCCCN3CCC(c4cc(F)cc5c4CN(C4CCC(=O)NC4=O)C5=O)CC3)c(OC3CCCC3)c2)CN1 (stereo not shown) [Compound B57, 3-(4-(1-(7-(2-(Cyclopentyloxy)-4-(5-oxopyrrolidin-3-yl)phenoxy)heptyl)piperidin-4-yl)-6-fluoro-1-oxoisoindolin-2-yl)piperidine-2,6-dione] | < 20 | 
Nc1ccc2c(c1)C(=O)N(c1ccc(OCCCCCCCN3CCC(c4cc(F)cc5c4CN(C4CCC(=O)NC4=O)C5=O)CC3)c(OC3CCCC3)c1)C2=O (stereo not shown) [Compound B58, 5-Amino-2-(3-(cyclopentyloxy)-4-((7-(4-(2-(2,6-dioxopiperidin-3-yl)-6-fluoro-1-oxoisoindolin-4-yl)piperidin-1-yl)heptyl)oxy)phenyl)isoindoline-1,3-dione] | < 20 | 
O=C1CCC(N2Cc3c(cc(F)cc3C3CCN(CCCCCCCOc4ccc(N5C(=O)c6ccccc6C5=O)cc4OC4CCCC4)CC3)C2=O)C(=O)N1 (stereo not shown) [Compound B59, 2-(3-(Cyclopentyloxy)-4-((7-(4-(2-(2,6-dioxopiperidin-3-yl)-6-fluoro-1-oxoisoindolin-4-yl)piperidin-1-yl)heptyl)oxy)phenyl)isoindoline-1,3-dione] | < 20 | 
COc1ccc(N2Cc3ccc(N)cc3C2=O)cc1OCCCCCCCN1CCC(c2cc(F)cc3c2CN(C2CCC(=O)NC2=O)C3=O)CC1 (stereo not shown) [Compound B60, 3-(4-(1-(7-(5-(6-Amino-1-oxoisoindolin-2-yl)-2-methoxyphenoxy)heptyl)piperidin-4-yl)-6-fluoro-1-oxoisoindolin-2-yl)piperidine-2,6-dione] | 20 to 40 | 
O=C1CCC(N2Cc3cc(C4CCN(CCCCCCCOc5cc(C(=O)Nc6c(Cl)cncc6Cl)ccc5OC(F)F)CC4)c(F)cc3C2=O)C(=O)N1 (stereo not shown) [Compound B61, N-(3,5-Dichloropyridin-4-yl)-4-(difluoromethoxy)-3-((7-(4-(2-(2,6-dioxopiperidin-3-yl)-6-fluoro-1-oxoisoindolin-5-yl)piperidin-1-yl)heptyl)oxy)benzamide] | ≥ 60 | ≥ 60
CCOc1cc([C@@H](CS(C)(=O)=O)N2C(=O)c3cccc(NC(=O)CCCCCCCCC(=O)N[C@H](C(=O)N4C[C@H](O)C[C@H]4C(=O)NCc4ccc(-c5scnc5C)cc4)C(C)(C)C)c3C2=O)ccc1OC [Compound B63, N^1-(2-((S)-1-(3-Ethoxy-4-methoxyphenyl)-2-(methylsulfonyl)ethyl)-1,3-dioxoisoindolin-4-yl)-N^10—((S)-1-((2S,4R)-4-hydroxy-2-((4-(4-methylthiazol-5-yl)benzyl)carbamoyl)pyrrolidin-1-yl)-3,3-dimethyl-1-oxobutan-2-yl)decanediamide] | ≥ 60 | ≥ 60
CCOc1cc([C@@H](CS(C)(=O)=O)N2C(=O)c3cccc(NC(=O)CCOCc4ccc(COCCNc5cccc6c5C(=O)N(C5CCC(=O)NC5=O)C6=O)cc4)c3C2=O)ccc1OC (stereo partly drawn) [Compound B64, 3-((4-((2-((2-(2,6-Dioxopiperidin-3-yl)-1,3-dioxoisoindolin-4-yl)amino)ethoxy)-methyl)benzyl)oxy)-N-(2-((S)-1-(3-ethoxy-4-methoxyphenyl)-2-(methylsulfonyl)ethyl)-1,3-dioxoisoindolin-4-yl)propanamide] | ≥ 60 | ≥ 60
COc1ccc(N2C(=O)c3ccsc3C2=O)cc1OCCCCCCCN1CCC(c2cc(F)cc3c2CN(C2CCC(=O)NC2=O)C3=O)CC1 (stereo not shown) [Compound B65, 5-(3-((7-(4-(2-(2,6-Dioxopiperidin-3-yl)-6-fluoro-1-oxoisoindolin-4-yl)piperidin-1-yl)heptyl)oxy)-4-methoxyphenyl)-4H-thieno[2,3-c]pyrrole-4,6(5H)-dione] | < 20 | 
COc1ccc(C2CNC(=O)C2)cc1OCCCCCCCNc1cccc2c1C(=O)N(C1CCC(=O)NC1=O)C2=O (stereo not shown) [Compound B66, 2-(2,6-Dioxopiperidin-3-yl)-4-((7-(2-methoxy-5-(5-oxopyrrolidin-3-yl)phenoxy)-heptyl)amino)isoindoline-1,3-dione] | ≥ 60 | 
COc1ccc(C2CNC(=O)C2)cc1OCCCCCCCCC(=O)N[C@H](C(=O)N1C[C@H](O)C[C@H]1C(=O)NCc1ccc(-c2scnc2C)cc1)C(C)(C)C (stereo partly drawn) [Compound B67, (2S,4R)-4-Hydroxy-1-((2S)-2-(9-(2-methoxy-5-(5-oxopyrrolidin-3-yl)phenoxy)-nonanamido)-3,3-dimethylbutanoyl)-N-(4-(4-methylthiazol-5-yl)benzyl)pyrrolidine-2-carboxamide] | ≥ 60 | 
Cc1ncsc1-c1ccc(CNC(=O)[C@@H]2C[C@@H](O)CN2C(=O)[C@@H](NC(=O)CCCCCCCCOc2cc(C(=O)Nc3c(Cl)cncc3Cl)ccc2OC(F)F)C(C)(C)C)cc1 [Compound B68, (2S,4R)-1-((S)-2-(9-(5-((3,5-Dichloropyridin-4-yl)carbamoyl)-2-(difluoromethoxy)phenoxy)nonanamido)-3,3-dimethylbutanoyl)-4-hydroxy-N-(4-(4-methylthiazol-5-yl)benzyl)pyrrolidine-2-carboxamide] | ≥ 60 | ≥ 60
CCOc1cc([C@@H](CS(C)(=O)=O)N2C(=O)c3cc(CCCN4CCC(c5cc(F)cc6c5CN(C5CCC(=O)NC5=O)C6=O)CC4)cc(NC(C)=O)c3C2=O)ccc1OC (stereo partly drawn) [Compound B69, N-(6-(3-(4-(2-(2,6-Dioxopiperidin-3-yl)-6-fluoro-1-oxoisoindolin-4-yl)piperidin-1-yl)propyl)-2-((S)-1-(3-ethoxy-4-methoxyphenyl)-2-(methylsulfonyl)ethyl)-1,3-dioxoisoindolin-4-yl)acetamide] | ≥ 60 | 40 to 60
CCOc1cc([C@@H](CS(C)(=O)=O)N2C(=O)c3cccc(NC(=O)CCCCCCCCNCc4ccc(OCc5scc6c5CN(C5CCC(=O)NC5=O)C6=O)cc4)c3C2=O)ccc1OC (stereo partly drawn) [Compound B70, 9-((4-((5-(2,6-Dioxopiperidin-3-yl)-4-oxo-5,6-dihydro-4H-thieno[3,4-c]pyrrol-1-yl)methoxy)benzyl)amino)-N-(2-((S)-1-(3-ethoxy-4-methoxyphenyl)-2-(methylsulfonyl)ethyl)-1,3-dioxoisoindolin-4-yl)nonanamide] | ≥ 60 | ≥ 60
CCOc1cc([C@@H](CS(C)(=O)=O)N2C(=O)c3cccc(NC(=O)CCCCCCCCCCCNc4cccc5c4C(=O)N(C4CCC(=O)NC4=O)C5=O)c3C2=O)ccc1OC (stereo partly drawn) [Compound B71, 12-((2-(2,6-Dioxopiperidin-3-yl)-1,3-dioxoisoindolin-4-yl)amino)-N-(2-((S)-1-(3-ethoxy-4-methoxyphenyl)-2-(methylsulfonyl)ethyl)-1,3-dioxoisoindolin-4-yl)dodecanamide] | ≥ 60 | ≥ 60
O=C1CCC(N2C(=O)c3cccc(NCCCCCCCOc4cc(C(=O)Nc5c(Cl)cncc5Cl)ccc4OC(F)F)c3C2=O)C(=O)N1 (stereo not shown) [Compound B72, N-(3,5-Dichloropyridin-4-yl)-4-(difluoromethoxy)-3-((7-((2-(2,6-dioxopiperidin-3-yl)-1,3-dioxoisoindolin-4-yl)amino)heptyl)oxy)benzamide] | ≥ 60 | ≥ 60
O=C1CCC(N2Cc3c(cc(F)cc3C3CCN(CCCCCCCCCCCCOc4cc(C(=O)Nc5c(Cl)cncc5Cl)ccc4OC(F)F)CC3)C2=O)C(=O)N1 (stereo not shown) [Compound B73, N-(3,5-Dichloropyridin-4-yl)-4-(difluoromethoxy)-3-((12-(4-(2-(2,6-dioxopiperidin-3-yl)-6-fluoro-1-oxoisoindolin-4-yl)piperidin-1-yl)dodecyl)oxy)benzamide] | ≥ 60 | ≥ 60
O=C1CCC(N2C(=O)c3cccc(NCCOCCOCCOCCOc4ccc(C(=O)Nc5c(Cl)cncc5Cl)cc4OC(F)F)c3C2=O)C(=O)N1 (stereo not shown) [Compound B74, N-(3,5-Dichloropyridin-4-yl)-3-(difluoromethoxy)-4-(2-(2-(2-(2-((2-(2,6-dioxopiperidin-3-yl)-1,3-dioxoisoindolin-4-yl)amino)ethoxy)ethoxy)ethoxy)ethoxy)benzamide] | ≥ 60 | ≥ 60
CCOc1cc([C@@H](CS(C)(=O)=O)N2C(=O)c3cccc(NC(=O)CCCCCCCCN4CCC(c5cc6c(cc5F)C(=O)N(C5CCC(=O)NC5=O)C6)CC4)c3C2=O)ccc1OC (stereo partly drawn) [Compound B75, 9-(4-(2-(2,6-Dioxopiperidin-3-yl)-6-fluoro-1-oxoisoindolin-5-yl)piperidin-1-yl)-N-(2-((S)-1-(3-ethoxy-4-methoxyphenyl)-2-(methylsulfonyl)ethyl)-1,3-dioxoisoindolin-4-yl)nonanamide] | ≥ 60 | ≥ 60
CCOc1cc([C@@H](CS(C)(=O)=O)N2C(=O)c3cccc(NC(=O)CCCCNCc4ccc(OCc5scc6c5CN(C5CCC(=O)NC5=O)C6=O)cc4)c3C2=O)ccc1OC (stereo partly drawn) [Compound B78, 5-((4-((5-(2,6-Dioxopiperidin-3-yl)-4-oxo-5,6-dihydro-4H-thieno[3,4-c]pyrrol-1-yl)methoxy)benzyl)amino)-N-(2-((S)-1-(3-ethoxy-4-methoxyphenyl)-2-(methylsulfonyl)ethyl)-1,3-dioxoisoindolin-4-yl)pentanamide] | ≥ 60 | 
COc1ccc(N2Cc3sccc3C2=O)cc1OCCCCCCCN1CCC(c2cc(F)cc3c2CN(C2CCC(=O)NC2=O)C3=O)CC1 (stereo not shown) [Compound B80, 3-(6-Fluoro-4-(1-(7-(2-methoxy-5-(4-oxo-4,6-dihydro-5H-thieno[2,3-c]pyrrol-5-yl)phenoxy)heptyl)piperidin-4-yl)-1-oxoisoindolin-2-yl)piperidine-2,6-dione] | ≥ 60 | 
